Reference: PMC10756536, “Functional expression and ligand identification of homo- and heteromeric Drosophila melanogaster CO2 receptors in the Xenopus laevis oocyte system” (PLOS ONE, 2023)

Assays:
Format in all cases: cell-based
[1] = molecular target: T1, Gr21a/Gr63a CO2 receptor (Gr63a) (Drosophila melanogaster, UniProt Q9VPT1+Q9VZL7); experiment: two-electrode voltage clamp, Xenopus oocytes, block of NaHCO3 current at […]
T1 construct: with Gr21a
T1 sequence (Q9VZL7 1-512): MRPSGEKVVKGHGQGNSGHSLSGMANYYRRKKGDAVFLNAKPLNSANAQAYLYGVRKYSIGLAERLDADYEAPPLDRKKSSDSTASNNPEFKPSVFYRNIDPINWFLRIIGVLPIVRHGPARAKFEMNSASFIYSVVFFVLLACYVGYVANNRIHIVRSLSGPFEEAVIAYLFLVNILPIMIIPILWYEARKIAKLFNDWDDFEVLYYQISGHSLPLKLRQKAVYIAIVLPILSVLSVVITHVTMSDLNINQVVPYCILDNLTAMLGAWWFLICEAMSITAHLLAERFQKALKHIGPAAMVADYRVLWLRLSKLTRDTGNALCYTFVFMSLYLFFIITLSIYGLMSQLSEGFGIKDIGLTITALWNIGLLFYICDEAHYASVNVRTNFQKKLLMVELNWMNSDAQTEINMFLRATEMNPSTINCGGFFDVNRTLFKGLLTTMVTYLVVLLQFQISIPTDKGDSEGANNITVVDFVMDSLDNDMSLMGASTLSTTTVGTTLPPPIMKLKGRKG
T1 sequence (Q9VPT1 1-447): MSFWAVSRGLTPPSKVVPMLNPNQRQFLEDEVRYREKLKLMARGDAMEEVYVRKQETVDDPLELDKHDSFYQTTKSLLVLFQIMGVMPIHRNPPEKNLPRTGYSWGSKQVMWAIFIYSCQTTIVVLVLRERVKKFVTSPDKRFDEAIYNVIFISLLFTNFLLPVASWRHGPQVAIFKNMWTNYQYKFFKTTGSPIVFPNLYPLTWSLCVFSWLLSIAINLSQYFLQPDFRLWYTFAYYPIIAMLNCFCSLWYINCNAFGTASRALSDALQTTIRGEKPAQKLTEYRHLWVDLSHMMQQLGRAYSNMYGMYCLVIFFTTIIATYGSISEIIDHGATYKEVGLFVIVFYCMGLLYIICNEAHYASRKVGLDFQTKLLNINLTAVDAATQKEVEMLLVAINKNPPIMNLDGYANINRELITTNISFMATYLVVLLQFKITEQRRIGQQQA

[2] = molecular target: T1, Gr21a/Gr63a CO2 receptor (Gr63a); experiment: two-electrode voltage clamp, Xenopus oocytes, block of […] NaHCO3 current
[3] = molecular target: T1, Gr21a/Gr63a CO2 receptor (Gr63a); experiment: two-electrode voltage clamp, Xenopus oocytes, agonist current at […]; settings: read-out: % of 200 mM NHC response at 10 mM

Compound	two-electrode voltage clamp, Xenopus oocytes, block of NaHCO3 current at 10 mM [1]	activation at 10000 µM [3]	further results
CCCCCCO [1-hexanol]	Gr21/Gr63 were significantly inhibited by 1-octanol, isobutyraldehyde, 1-hexanol		
CCCCCCCCO [1-octanol]	Gr21/Gr63 were significantly inhibited by 1-octanol, isobutyraldehyde, 1-hexanol		
CC(C)=CCCC(C)CCO (stereo not drawn) [citronellol]			IC50 [2]: 5.1 ± 0.25 mM
CC(C)C=O [isobutyraldehyde]	Gr21/Gr63 were significantly inhibited by 1-octanol, isobutyraldehyde, 1-hexanol		
COC(=O)C(C)=O [methyl pyruvate]		29 ± 8%	
CCCCCCN [n-hexylamine]		64 ± 17%	
